We go through two compounds from publication PMC8786250, “Comparison of chemical profiles, antioxidation, inhibition of skin extracellular matrix degradation, and anti-tyrosinase activity between mycelium and fruiting body of Cordyceps militaris and Isaria tenuipes” (Pharmaceutical Biology, 2022).

The target of test [1] is T1, elastase from porcine pancreas (Sus scrofa, UniProt P00772).
T1 construct: gene CELA1; native enzyme from pancreas, lyophilised powder (Sigma-Aldrich); mature form
Kind of test: spectrophotometric elastase inhibition assay. The following applies: read-out: IC50 (mg/mL) / Elastase inhibition (converted). The class given is biochemical. The source says:
spectrophotometric elastase inhibition assay on elastase from porcine pancreas

For test [2], the target named is T2, metalloproteinase-1 (MMP-1) from Clostridium histolyticum (ChC).
T2 construct: gene colG; native collagenase preparation (Sigma-Aldrich)
Put plainly: spectrophotometric MMP-1 (collagenase) inhibition assay. The following applies: substrate FALGPA; positive control. The test is classed as biochemical, Hathewaya histolytica. The source says: spectrophotometric MMP-1 (collagenase) inhibition assay on metalloproteinase-1 (MMP-1) from Clostridium histolyticum (ChC)

≈ marks a conversion by molar mass, not a printed value.

T1 sequence (P00772 27-266): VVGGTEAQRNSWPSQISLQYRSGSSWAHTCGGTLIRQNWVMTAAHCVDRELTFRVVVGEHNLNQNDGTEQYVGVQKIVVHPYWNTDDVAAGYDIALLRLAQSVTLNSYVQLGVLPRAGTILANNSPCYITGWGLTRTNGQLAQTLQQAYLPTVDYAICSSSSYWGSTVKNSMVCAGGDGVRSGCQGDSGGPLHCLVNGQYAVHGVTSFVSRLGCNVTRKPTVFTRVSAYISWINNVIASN

`O=C(O[C@@H]1Cc2c(O)cc(O)cc2O[C@@H]1c1cc(O)c(O)c(O)c1)c1cc(O)c(O)c(O)c1` [EGCG, epigallocatechin gallate]: the IC50 in test [1] was 2.18 µM.
As for `CC1(C)CC[C@]2(C(=O)O)CC[C@]3(C)C(=CC[C@@H]4[C@@]5(C)CC[C@H](O)C(C)(C)[C@@H]5CC[C@]43C)[C@@H]2C1` [OA, oleanolic acid], the “IC50 (mg/mL) / MMP-1 inhibition” value in test [2] was 0.002 ± 0.000 mg/mL (≈ 4.38 µM).
